In brackets after ≈: the same amount, converted by molar mass.
How the values were obtained:
[1] = system: Eschericia coli TEM; test: agar-dilution MIC; format: cell-based
Experimental: (§1) The MIC's in Table I were determined by standard agar-dilution assays. The MIC's in Table II were obtained using a conventional broth-dilution microtiter test.

[2] = system: Haemophilus influenzae 76; test: agar-dilution MIC; format: cell-based; details: Haemophilus influenzae 76, ampicillin-resistant strain
Experimental: as §1

[3] = system: Haemophilus influenzae C.L.; test: agar-dilution MIC; format: cell-based; details: ampicillin-sensitive strain
Experimental: as §1

[4] = system: Klebsiella pneumoniae X26; test: agar-dilution MIC; format: cell-based
Experimental: as §1

[5] = system: Staphylococcus aureus S13E; test: agar-dilution MIC; format: cell-based
Experimental: as §1

[6] = system: Staphylococcus aureus V41; test: agar-dilution MIC; format: cell-based; details: Staphylococcus aureus V41, penicillin-resistant strain
Experimental: as §1

[7] = system: Staphylococcus aureus X1.1; test: agar-dilution MIC; format: cell-based
Experimental: as §1

[8] = system: Staphylococcus aureus X400; test: agar-dilution MIC; format: cell-based; details: Staphylococcus aureus X400, methicillin-resistant strain
Experimental: as §1

[9] = system: Staphylococcus epidermidis EPI1; test: agar-dilution MIC; format: cell-based
Experimental: as §1

[10] = system: Staphylococcus epidermidis EPI2; test: agar-dilution MIC; format: cell-based
Experimental: as §1

[11] = system: Streptococcus pneumoniae Group D 9960; test: agar-dilution MIC; format: cell-based; details: GROUPD9960
Experimental: as §1

[12] = system: Streptococcus pneumoniae Group D X66; test: agar-dilution MIC; format: cell-based
Experimental: as §1

[13] = system: Streptococcus pneumoniae Park I; test: agar-dilution MIC; format: cell-based
Experimental: as §1

[14] = system: Streptococcus pyogenes C203; test: agar-dilution MIC; format: cell-based
Experimental: as §1

[15] = system: Mycoplasma hyopneumonia S-5972; test: broth-dilution microtiter MIC; format: cell-based; details: S5972
Experimental: as §1

[16] = system: Pasteurella multocida 17E; test: broth-dilution microtiter MIC; format: cell-based; details: bovine isolate
Experimental: as §1

[17] = system: Pasteurella multocida 60A; test: broth-dilution microtiter MIC; format: cell-based; details: avian isolate
Experimental: as §1

[18] = system: Staphylococcus aureus; test: broth-dilution microtiter MIC; format: cell-based
Experimental: as §1

[19] = system: Streptococcus sp. 80; test: broth-dilution microtiter MIC; format: cell-based
Experimental: as §1

[20] = system: Mycoplasma gallisepticum; test: antimycoplasmal activity in experimentally infected chicks; format: in vivo; details: gavage, 0.5 g/gal × 5, 21 days after infection; for Number with Antibodies / Number Tested: antibodies to M. gallisepticum; for Number with Antibodies / Number Tested / Number with Air-Sac Lesions / Number Treated: infected control 10/10, uninfected control 0/10; for Mortality: infected control 2/7
Experimental: In these tests infections were induced in chicks by injecting 0.2 ml of a broth culture of M. gallisepticum into the abdominal air sac of one- to three-day-old chicks. The compounds were administered by gavage at a dose equivalent to 0.5 g/gal two times on the day of infection, two times on the day following infection and one time on the third day. Twenty-one days after infection the chicks were weighed, a blood sample was taken, and the chicks were sacrificed. The presence or absence of air-sac lesions was recorded.

[21] = macrocin vs tylosin, lactenocin vs desmycosin; cited from earlier work

| SMILES | MIC [1] [µg/mL] | MIC [2] [µg/mL] | MIC [3] [µg/mL] | MIC [4] [µg/mL] | MIC [5] [µg/mL] | MIC [6] [µg/mL] | MIC [7] [µg/mL] | MIC [8] [µg/mL] | MIC [9] [µg/mL] | MIC [10] [µg/mL] | MIC [11] [µg/mL] | MIC [12] [µg/mL] | MIC [13] [µg/mL] | MIC [14] [µg/mL] | MIC [15] [µg/mL] | MIC [16] [µg/mL] | MIC [17] [µg/mL] | MIC [18] [µg/mL] | MIC [19] [µg/mL] | Number with Antibodies / Number Tested [20] | further results |
| --- | --- | --- | --- | --- | --- | --- | --- | --- | --- | --- | --- | --- | --- | --- | --- | --- | --- | --- | --- | --- | --- |
| CCCC(=O)OC1C(C)OC(OC2C(C)OC(OC3C(CC=O)CC(C)C(=O)C=CC(C)=CC(COC4OC(C)C(O)C(O)C4OC)C(CC)OC(=O)CC(OC(C)=O)C3C)C(O)C2N(C)C)CC1(C)O (stereo not shown) [3-Acetyl-4"-(n-Butyryl)-macrocin, 3-O-Acetyl-4"-O-(n-Butyryl)macrocin] | > 128 | 32 (≈ 31.6 µM) | 32 (≈ 31.6 µM) | 64 (≈ 63.1 µM) | 2 (≈ 1.97 µM) | 1 (≈ 0.986 µM) | 1 (≈ 0.986 µM) | 2 (≈ 1.97 µM) | 1 (≈ 0.986 µM) | 2 (≈ 1.97 µM) | 2 (≈ 1.97 µM) | 2 (≈ 1.97 µM) | 0.25 (≈ 0.246 µM) | 0.5 (≈ 0.493 µM) | 0.048 (≈ 0.0473 µM) | 50 (≈ 49.3 µM) | 50 (≈ 49.3 µM) | 3.12 (≈ 3.08 µM) | 0.39 (≈ 0.385 µM) | 7/9 | Mortality [20]: 1/7; Number with Air-Sac Lesions / Number Treated [20]: 7/10 |
| CCC1OC(=O)CC(OC(C)=O)C(C)C(OC2OC(C)C(OC3CC(C)(O)C(OC(=O)CC(C)C)C(C)O3)C(N(C)C)C2O)C(CC=O)CC(C)C(=O)C=CC(C)=CC1COC1OC(C)C(O)C(O)C1OC (stereo not shown) [3-Acetyl-4"-Isovaleryl-macrocin, 3-O-acetyl-4"-O-isovalerylmacrocin] | 128 (≈ 124 µM) | 16 (≈ 15.6 µM) | 32 (≈ 31.1 µM) | 64 (≈ 62.2 µM) | 1 (≈ 0.973 µM) | 1 (≈ 0.973 µM) | 0.5 (≈ 0.486 µM) | 2 (≈ 1.95 µM) | 0.5 (≈ 0.486 µM) | 2 (≈ 1.95 µM) | 2 (≈ 1.95 µM) | 2 (≈ 1.95 µM) | 0.5 (≈ 0.486 µM) | 0.25 (≈ 0.243 µM) | 0.048 (≈ 0.0467 µM) | 50 (≈ 48.6 µM) | > 50 | 1.56 (≈ 1.52 µM) | 0.39 (≈ 0.379 µM) | 10/10 | Mortality [20]: 0/10; Number with Air-Sac Lesions / Number Treated [20]: 1/10 |
| CCC1OC(=O)CC(OC(C)=O)C(C)C(OC2OC(C)C(O)C(N(C)C)C2O)C(CC=O)CC(C)C(=O)C=CC(C)=CC1COC1OC(C)C(O)C(O)C1OC (stereo not shown) [3-Acetyl-lactenocin, 3-O-Acetyllactenocin] | 64 (≈ 80 µM) | 8 (≈ 10 µM) | 16 (≈ 20 µM) | 32 (≈ 40 µM) | 2 (≈ 2.5 µM) | 2 (≈ 2.5 µM) | 1 (≈ 1.25 µM) | 4 (≈ 5 µM) | 1 (≈ 1.25 µM) | 4 (≈ 5 µM) | 8 (≈ 10 µM) | 8 (≈ 10 µM) | 0.5 (≈ 0.625 µM) | 0.25 (≈ 0.313 µM) | – | 12.5 (≈ 15.6 µM) | 25 (≈ 31.3 µM) | 3.12 (≈ 3.9 µM) | 1.56 (≈ 1.95 µM) | – | – |
| CCC1OC(=O)CC(OC(C)=O)C(C)C(OC2OC(C)C(OC3CC(C)(O)C(O)C(C)O3)C(N(C)C)C2O)C(CC=O)CC(C)C(=O)C=CC(C)=CC1COC1OC(C)C(O)C(O)C1OC (stereo not shown) [3-Acetyl-macrocin, 3-O-Acetylmacrocin] | 64 (≈ 67.8 µM) | 16 (≈ 16.9 µM) | 32 (≈ 33.9 µM) | 64 (≈ 67.8 µM) | 1 (≈ 1.06 µM) | 1 (≈ 1.06 µM) | 0.5 (≈ 0.53 µM) | 2 (≈ 2.12 µM) | 0.5 (≈ 0.53 µM) | 2 (≈ 2.12 µM) | 2 (≈ 2.12 µM) | 2 (≈ 2.12 µM) | 0.5 (≈ 0.53 µM) | 0.25 (≈ 0.265 µM) | – | 50 (≈ 53 µM) | > 50 | 1.56 (≈ 1.65 µM) | 1.56 (≈ 1.65 µM) | – | – |
| CCC1OC(=O)CC(O)C(C)C(OC2OC(C)C(O)C(N(C)C)C2O)C(CC=O)CC(C)C(=O)C=CC(C)=CC1COC1OC(C)C(O)C(O)C1OC (stereo not shown) [lactenocin] | – | – | – | – | – | – | – | – | – | – | – | – | – | – | – | – | – | – | – | – | antibiotic activity relative to tylosin / desmycosin [21]: less than that of tylosin and desmycosin, respectively |
| CCC1OC(=O)CC(O)C(C)C(OC2OC(C)C(OC3CC(C)(O)C(O)C(C)O3)C(N(C)C)C2O)C(CC=O)CC(C)C(=O)C=CC(C)=CC1COC1OC(C)C(O)C(O)C1OC (stereo not shown) [macrocin] | – | – | – | – | – | – | – | – | – | – | – | – | – | – | – | – | – | – | – | – | antibiotic activity relative to tylosin / desmycosin [21]: less than that of tylosin |

Source: patent US4656258A, “Macrocin derivatives” (Eli Lilly and Company, priority 1985, dated 1987)
